Experimental findings from patent publication US8765750B2, “Piperazine compound having a PGDS inhibitory effect” (Taiho Pharmaceutical Co., Ltd., priority 2010, dated 2014) are described below.

SMILES strings stand for the structures.

In one assay the target is human H-PGDS (Homo sapiens (Human), UniProt O60760). As to the kind of experiment: Hematopoietic prostaglandin D synthase (H-PGDS) inhibiting action. The class given is biochemical. Particulars: for inhibition at 0.1 µM: compound at 0.1 μM, relative to the control group, human H-PGDS, [14C] prostaglandin H2 10 μM, read-out: Inhibition Rate (%) 0.1 μM. How it is done:
The test was carried out according to the method of Urade, Y. et al. (J. Biol. Chem., 262, 3820-3825, (1987)). More specifically, the reaction mixture (49 μL) containing 100 mM Tris-HCl (pH 8.0), 1 mM reduced glutathione, 0.1 mg/mL γ-globulin, and human H-PGDS (q.s.), and a compound (final concentration: 0.01-100 μM) was preincubated at 25° C. for 5 minutes. A DMSO solution (final concentration: 1%) was added to the solvent control group. Subsequently, 1 μL of [^14C] prostaglandin H2 (final concentration: 10 μM) was added to start the reaction. One minute after the start of the reaction, 250 μL of a reaction stop solution (diethylether/methanol/1 M citric acid (30/4/1) at a temperature of −20° C. was added to stop the reaction. After the reaction was stopped, 50 μL of the upper-layer portion (organic solvent layer) was applied to a TLC plate and developed at −20° C. for 45 minutes (developing solvent: diethylether/methanol/acetic acid (90/2/1)). After drying the TLC plate, the TLC plate was exposed to an imaging plate for 1 to 24 hours, and the radioactivity corresponding to prostaglandin D2 (PGD2) was analyzed using an image analyzer (produced by Fujifilm Corporation). […]

The subject of assay [1] is PGD2 production in the nasal cavities of guinea pigs with antigen-induced rhinitis. Briefly: PGD2 production inhibiting action in the nasal cavities of guinea pigs with antigen-induced rhinitis. Particulars: 30 mg/kg orally 1 hour before induction of rhinitis reaction; washing 30 minutes after induction; * = significance level below 0.05 vs control group. It counts as in vivo. How it is done: A physiological saline solution containing 1 mg/mL of ovalbumin was subcutaneously injected into the back of 5-week-old male Std: Hartley guinea pigs in an amount of 1 mL/body for active sensitization (initial sensitization). One week and two weeks after initial sensitization, 20 μL of a physiological saline solution containing 10 mg/mL of ovalbumin was instilled into each nasal cavity using a micropipette (sensitization by nasal administration). Three weeks after initial sensitization, 20 μL of a physiological saline solution containing 10 mg/mL of ovalbumin was instilled into each nasal cavity using a micropipette to induce a rhinitis reaction.
30 minutes after the induction of a rhinitis reaction, the nasal cavities were washed under pentobarbital sodium anesthesia. A nasal cavity washing liquid (phosphate buffered saline containing 3 mM of EDTA and 10 μM of indomethacin) was flushed using a Peristaltic Pump (Gilson, Inc.) in the direction from the trachea to the upper respiratory tract at a flow rate of 1 mL/min, and the liquid flowing out from the nasal cavities was collected for 1 minute. The collected liquid was centrifuged to separate the supernatant as the nasal cavity washing fluid. The concentration of PGD2 in the nasal cavity washing fluid was determined using an EIA kit (Prostaglandin D2-MOX EIA kit, Cayman Chemical).
The test compound (30 mg/kg) was orally administered 1 hour before induction of a rhinitis reaction. A formula to calculate the rate of decrease in PGD2 in the nasal cavity washing fluid is shown below. Rate (%) of decrease in PGD2 in the nasal cavity washing fluid={(PGD2 concentration in the control group−PGD2 concentration in the compound-administered group)÷(PGD2 concentration in the control group−PGD2 concentration in the normal group)}×100
8 or more cases were obtained from each group to determine whether expression of the PGD2 production inhibiting action occurred, and the PGD2 concentration in the nasal cavity washing fluid was compared between the control group and each compound-administered group. […] When the significance level was below 0.05, the action was considered to be present and indicated by a symbol (*) in the table. Reference Example 18, known as an H-PGDS inhibitor, was used as a positive control substance.

Sequence of human H-PGDS (O60760 whole entry): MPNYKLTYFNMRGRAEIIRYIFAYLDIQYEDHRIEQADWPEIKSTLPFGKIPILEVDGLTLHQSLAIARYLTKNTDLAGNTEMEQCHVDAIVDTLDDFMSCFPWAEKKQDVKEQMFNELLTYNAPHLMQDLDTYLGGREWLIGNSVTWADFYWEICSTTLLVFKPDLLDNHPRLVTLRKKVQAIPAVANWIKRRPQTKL

In general, inhibition refers to the drop in the measured response relative to a control, in per cent. As for `Cc1cc2nc(NC(=O)N3CCN(C(=O)c4cccc(F)c4)CC3)sc2cc1C` [Reference Example 13, 4-(3-fluorobenzoyl)-piperazine-1-carboxylic acid-(5,6-dimethylbenzothiazol-2-yl)-amide, reference compound], the inhibition at 0.1 µM on human H-PGDS is 31.6%. For the same compound, the “Rate (%) of decrease in PGD2 in the nasal cavity washing fluid” value (“Rate (%) of decrease in PGD2” for short) in assay [1] worked out at 3.9%.

For orientation: IC50 means the concentration that gives 50% inhibition. For the compound `O=C(Nc1ccc(C(F)(F)F)cc1)N1CCN(C(=O)c2cccc(F)n2)CC1` [Reference Example 17, 4-(6-fluoropyridine-2-carbonyl)-piperazine-1-carboxylic acid-(4-trifluoromethylphenyl)-amide, reference compound], at human H-PGDS, the IC50 was 5.82 µM and the inhibition at 0.1 µM came out at 1.8%. For the same compound, the “Rate (%) of decrease in PGD2” value in assay [1] was found to be 31.0%.

Take `O=C(Nc1nc2ccc(Br)cc2s1)N1CCN(C(=O)c2cccc(F)c2)CC1` [Reference Example 12, 4-(3-fluorobenzoyl)-piperazine-1-carboxylic acid-(6-bromobenzothiazol-2-yl)-amide, reference compound]: the inhibition at 0.1 µM on human H-PGDS stood at 45.1%. Besides, in assay [1], the “Rate (%) of decrease in PGD2” value worked out at 7.9%.

`Cc1ccc2nc(NC(=O)N3CCN(C(=O)c4cccc(F)c4)CC3)sc2c1` [Reference Example 14, 4-(3-fluorobenzoyl)-piperazine-1-carboxylic acid-(6-methylbenzothiazol-2-yl)-amide, reference compound]: the inhibition at 0.1 µM on human H-PGDS was found to be 27.9%. Moreover, the “Rate (%) of decrease in PGD2” value in assay [1] is on record as 26.6%.
